From patent publication US20240246977A1, “DEGRADATION OF BRUTON'S TYROSINE KINASE (BTK) BY CONJUGATION OF BTK INHIBITORS WITH E3 LIGASE LIGAND AND METHOD OF USE” (BeiGene Switzerland GmbH, priority 2021, published 2024)

Tests used:
BTK = BTK (Homo sapiens, UniProt Q06187); experiment: BTK cell degradation in TMD-8 cells, HTRF assay; assay type: cell-based; design: endogenous in cells; host or cells: TMD-8 cells; conditions: 6 h treatment, IC50 (DC50) of BTK degradation
Summary of the method: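 BTK levels read by HTRF in lysates of TMD-8 cells exposed to compounds for 6 h, eight concentrations at 6-fold steps in 0.2% DMSO. Percent degradation versus DMSO and low controls was fitted with a four-parameter equation to give DC50; Dmax is maximal degradation.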

HEK-293 cells = experiment: HEK-293 cytotoxicity detection (CellTiter-Glo); assay type: cell-based; conditions: Homo sapiens, 72 h, 72 h incubation, CellTiter-Glo luminescence, read-out: HEK293
Summary of the method: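 HEK-293 cells exposed 72 h to 8 compounds doses (4-fold dilutions, top stock 5 mM at 500×) in 0.2% DMSO. Viability by CellTiter-Glo luminescence; inhibition normalised to DMSO high control and low control, IC50 from four-parameter curve fit.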

BTK, sequence (Q06187 whole entry): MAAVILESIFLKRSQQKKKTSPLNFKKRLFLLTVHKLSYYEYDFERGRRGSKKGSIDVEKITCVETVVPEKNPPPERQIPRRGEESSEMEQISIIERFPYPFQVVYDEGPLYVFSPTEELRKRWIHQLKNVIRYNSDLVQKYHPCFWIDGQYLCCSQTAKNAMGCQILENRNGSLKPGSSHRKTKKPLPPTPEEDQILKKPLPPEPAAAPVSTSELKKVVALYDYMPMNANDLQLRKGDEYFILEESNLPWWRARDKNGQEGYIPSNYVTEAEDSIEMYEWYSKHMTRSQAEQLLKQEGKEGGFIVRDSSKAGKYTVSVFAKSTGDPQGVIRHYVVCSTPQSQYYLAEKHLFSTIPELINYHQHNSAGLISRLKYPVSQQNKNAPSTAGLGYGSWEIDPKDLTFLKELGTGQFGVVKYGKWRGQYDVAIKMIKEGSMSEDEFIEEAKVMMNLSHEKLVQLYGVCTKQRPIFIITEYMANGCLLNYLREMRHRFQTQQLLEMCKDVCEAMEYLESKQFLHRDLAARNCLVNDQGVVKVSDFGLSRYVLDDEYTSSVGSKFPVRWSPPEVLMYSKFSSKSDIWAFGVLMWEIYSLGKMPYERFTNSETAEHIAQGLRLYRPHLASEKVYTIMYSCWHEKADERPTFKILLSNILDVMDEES

Row | SMILES | DC50 (BTK) [nM] | IC50 (HEK-293 cells) [nM]
1 | COc1ccc(C(F)(F)F)cc1C(=O)NCc1ccc(-c2nn3c(c2C(N)=O)Nc2ccc(N4CCN(CC5CCN(c6ccc(N7CCC(=O)NC7=O)cc6)CC5)CC4)cc2CC3)c(F)c1F [Example C28, 2-(2,3-difluoro-4-((2-methoxy-5-(trifluoromethyl)benzamido)methyl)phenyl)-7-(4-((1-(4-(2,4-dioxotetrahydropyrimidin-1(2H)-yl)phenyl)piperidin-4-yl)methyl)piperazin-1-yl)-9,10-dihydro-4H-benzo[d]pyrazolo[1,5-a][1,3]diazepine-3-carboxamide] | 1.15 | > 10000
2 | COc1ccc(C2CC2)cc1C(=O)NCc1ccc(-c2nn3c(c2C(N)=O)Nc2ccc(N4CCN(CC5CCN(c6ccc(N7CCC(=O)NC7=O)cc6)CC5)CC4)cc2CC3)cc1 [Example C29, 2-(4-((5-cyclopropyl-2-methoxybenzamido)methyl)phenyl)-7-(4-((1-(4-(2,4-dioxotetrahydropyrimidin-1(2H)-yl)phenyl)piperidin-4-yl)methyl)piperazin-1-yl)-9,10-dihydro-4H-benzo[d]pyrazolo[1,5-a][1,3]diazepine-3-carboxamide] | 1.56 | > 10000
3 | NC(=O)c1c(-c2ccc(Oc3ccccc3)cc2)nn2c1Nc1ccc(C3CCN(CCC4CCN(c5ccc(N6CCC(=O)NC6=O)cc5)CC4)CC3)cc1CC2 [Example A28, 7-(1-(2-(1-(4-(2,4-dioxotetrahydropyrimidin-1(2H)-yl)phenyl)piperidin-4-yl)ethyl)piperidin-4-yl)-2-(4-phenoxyphenyl)-9,10-dihydro-4H-benzo[d]pyrazolo[1,5-a][1,3]diazepine-3-carboxamide] | 2.01 | 81.1
4 | Cc1c(C(=O)Nc2nccs2)ccc(-c2nn3c(c2C(N)=O)Nc2ccc(N4CCN(CC5CCN(c6ccc(N7CCC(=O)NC7=O)cc6)CC5)CC4)cc2CC3)c1F [Example B83, 7-(4-((1-(4-(2,4-dioxotetrahydropyrimidin-1(2H)-yl)phenyl)piperidin-4-yl)methyl)piperazin-1-yl)-2-(2-fluoro-3-methyl-4-(thiazol-2-ylcarbamoyl)phenyl)-9,10-dihydro-4H-benzo[d]pyrazolo[1,5-a][1,3]diazepine-3-carboxamide] | 2.9 | > 10000
5 | NC(=O)c1c(-c2ccc(C(=O)Nc3cc(C(F)(F)F)ccn3)cc2Cl)nn2c1Nc1ccc(N3CCN(CC4CCN(c5ccc(N6CCC(=O)NC6=O)cc5)CC4)CC3)cc1CC2 [Example B24, 2-(2-chloro-4-((4-(trifluoromethyl)pyridin-2-yl)carbamoyl)phenyl)-7-(4-((1-(4-(2,4-dioxotetrahydropyrimidin-1(2H)-yl)phenyl)piperidin-4-yl)methyl)piperazin-1-yl)-9,10-dihydro-4-benzo[d]pyrazolo[1,5-a][1,3]diazepine-3-carboxamide] | 1.51 | > 10000
6 | COc1ccncc1C(=O)N[C@H](C)c1ccc(-c2nn3c(c2C(N)=O)Nc2ccc(N4CCN(CC5CCN(c6ccc(N7CCC(=O)NC7=O)cc6)CC5)CC4)cc2CC3)cc1 [Example C18, (R)-7-(4-((1-(4-(2,4-dioxotetrahydropyrimidin-1(2H)-yl)phenyl)piperidin-4-yl)methyl)piperazin-1-yl)-2-(4-(1-(4-methoxynicotinamido)ethyl)phenyl)-9,10-dihydro-4H-benzo[d]pyrazolo[1,5-a][1,3]diazepine-3-carboxamide] | 12.5 | > 10000
7 | Cc1c(C(=O)Nc2cscn2)ccc(-c2nn3c(c2C(N)=O)Nc2ccc(N4CCN(C[C@H]5CCN(c6ccc(N7CCC(=O)NC7=O)cc6)C5)CC4)cc2CC3)c1F [Example B103, (R)-7-(4-((1-(4-(2,4-dioxotetrahydropyrimidin-1(2H)-yl)phenyl)pyrrolidin-3-yl)methyl)piperazin-1-yl)-2-(2-fluoro-3-methyl-4-(thiazol-4-ylcarbamoyl)phenyl)-9,10-dihydro-4H-benzo[d]pyrazolo[1,5-a][1,3]diazepine-3-carboxamide] | 3.3 | > 10000
8 | Cc1cccc(NC(=O)c2ccc(-c3nn4c(c3C(N)=O)Nc3ccc(N5CCN(CC6CCN(c7ccc(N8CCC(=O)N(CC(=O)OC(C)(C)C)C8=O)cc7)CC6)CC5)cc3CC4)c(F)c2C)n1 [Example B76, tert-butyl 2-(3-(4-(4-((4-(3-carbamoyl-2-(2-fluoro-3-methyl-4-((6-methylpyridin-2-yl)carbamoyl)phenyl)-9,10-dihydro-4H-benzo[d]pyrazolo[1,5-a][1,3]diazepin-7-yl)piperazin-1-yl)methyl)piperidin-1-yl)phenyl)-2,6-dioxotetrahydropyrimidin-1(2H)-yl)acetate] | > 2000 | > 10000
9 | NC(=O)c1c(-c2ccc(C(=O)Nc3nccc(C(F)(F)F)c3F)cc2)nn2c1Nc1ccc(N3CCN(CC4CCN(c5ccc(N6CCC(=O)NC6=O)cc5)CC4)CC3)cc1CC2 [Example B13, 7-(4-((1-(4-(2,4-dioxotetrahydropyrimidin-1(2H)-yl)phenyl)piperidin-4-yl)methyl)piperazin-1-yl)-2-(4-((3-fluoro-4-(trifluoromethyl)pyridin-2-yl)carbamoyl)phenyl)-9,10-dihydro-4H-benzo[d]pyrazolo[1,5-a][1,3]diazepine-3-carboxamide] | 0.408 | 180
10 | COc1cccnc1C(=O)NCc1ccc(-c2nn3c(c2C(N)=O)Nc2ccc(N4CCN(CC5CCN(c6ccc(N7CCC(=O)NC7=O)cc6)CC5)CC4)cc2CC3)cc1C [Example C36] | 6.66 | > 10000
11 | NC(=O)c1c(-c2ccc(Oc3ccccc3)cc2)nn2c1Nc1ccc(NC(=O)COCCOCCOCCOCCNc3cccc4c3C(=O)N(C3CCC(=O)NC3=O)C4=O)cc1CC2 (stereo not shown) [Example A2, 7-(14-((2-(2,6-dioxopiperidin-3-yl)-1,3-dioxoisoindolin-4-yl)amino)-3,6,9,12-tetraoxatetradecanamido)-2-(4-phenoxyphenyl)-9,10-dihydro-4H-benzo[d]pyrazolo[1,5-a][1,3]diazepine-3-carboxamide] | 1.85 | 557
12 | COc1cc(C(=O)Nc2cc(C(F)(F)F)ccn2)ccc1-c1nn2c(c1C(N)=O)Nc1ccc(N3CCN(CC4CCN(c5ccc(N6CCC(=O)NC6=O)cc5)CC4)CC3)cc1CC2 [Example B27, 7-(4-((1-(4-(2,4-dioxotetrahydropyrimidin-1(2H)-yl)phenyl)piperidin-4-yl)methyl)piperazin-1-yl)-2-(2-methoxy-4-((4-(trifluoromethyl)pyridin-2-yl)carbamoyl)phenyl)-9,10-dihydro-4H-benzo[d]pyrazolo[1,5-a][1,3]diazepine-3-carboxamide] | 0.849 | > 10000
13 | Cc1c(C(=O)Nc2ncnn2C)ccc(-c2nn3c(c2C(N)=O)Nc2ccc(N4CCN(CC5CCN(c6ccc(N7CCC(=O)NC7=O)cc6)CC5)CC4)cc2CC3)c1F [Example B93, 7-(4-((1-(4-(2,4-dioxotetrahydropyrimidin-1(2H)-yl)phenyl)piperidin-4-yl)methyl)piperazin-1-yl)-2-(2-fluoro-3-methyl-4-((1-methyl-1H-1,2,4-triazol-5-yl)carbamoyl)phenyl)-9,10-dihydro-4H-benzo[d]pyrazolo[1,5-a][1,3]diazepine-3-carboxamide] | 3.77 | > 10000
14 | Cc1c(C(=O)Nc2cn(C)cn2)ccc(-c2nn3c(c2C(N)=O)Nc2ccc(N4CCN(C[C@H]5CCN(c6ccc(N7CCC(=O)NC7=O)cc6)C5)CC4)cc2CC3)c1F [Example B92, (R)-7-(4-((1-(4-(2,4-dioxotetrahydropyrimidin-1(2H)-yl)phenyl)pyrrolidin-3-yl)methyl)piperazin-1-yl)-2-(2-fluoro-3-methyl-4-((1-methyl-1H-imidazol-4-yl)carbamoyl)phenyl)-9,10-dihydro-4H-benzo[d]pyrazolo[1,5-a][1,3]diazepine-3-carboxamide] | 1.86 | > 10000
15 | COc1ccccc1C(=O)N[C@H](C)c1ccc(-c2nn3c(c2C(N)=O)Nc2ccc(N4CCN(CC5CCN(c6ccc(N7CCC(=O)NC7=O)cc6)CC5)CC4)cc2CC3)cc1 [Example C14, (R)-7-(4-((1-(4-(2,4-dioxotetrahydropyrimidin-1(2H)-yl)phenyl)piperidin-4-yl)methyl)piperazin-1-yl)-2-(4-(1-(2-methoxybenzamido)ethyl)phenyl)-9,10-dihydro-4H-benzo[d]pyrazolo[1,5-a][1,3]diazepine-3-carboxamide] | 2.76 | > 10000
16 | NC(=O)c1c(-c2ccc(C(=O)Nc3cc(C(F)(F)F)ccn3)c(F)c2)nn2c1Nc1ccc(N3CCN(CC4CCN(c5ccc(N6CCC(=O)NC6=O)cc5)CC4)CC3)cc1CC2 [Example B8, 7-(4-((1-(4-(2,4-dioxotetrahydropyrimidin-1(2H)-yl)phenyl)piperidin-4-yl)methyl)piperazin-1-yl)-2-(3-fluoro-4-((4-(trifluoromethyl)pyridin-2-yl)carbamoyl)phenyl)-9,10-dihydro-4H-benzo[d]pyrazolo[1,5-a][1,3]diazepine-3-carboxamide] | 1.82 | 301
17 | COc1ccccc1C(=O)NC(C)c1ccc(-c2nn3c(c2C(N)=O)Nc2ccc(N4CCN(CC5CCN(c6ccc(N7CCC(=O)NC7=O)cc6)CC5)CC4)cc2CC3)cc1 (stereo not shown) [Example C5, 7-(4-((1-(4-(2,4-dioxotetrahydropyrimidin-1(2H)-yl)phenyl)piperidin-4-yl)methyl)piperazin-1-yl)-2-(4-(1-(2-methoxybenzamido)ethyl)phenyl)-9,10-dihydro-4H-benzo[d]pyrazolo[1,5-a][1,3]diazepine-3-carboxamide] | 3.82 | > 10000
